One block for each molecule: values may come before it. Square brackets hold non-standard residues; d marks the D form. Peptide text beside a SMILES is read from it. * marks the point of attachment. ξ: configuration not given here. Thr(3ξ) = CC(O)[C@H](N)C(=O)O; X1 = CN(CCC(=O)*)c1ccnc(CS)c1; ξR = N=C(N)NCCCC(N)C(=O)O; ξS = NC(CO)C(=O)O
Key:
Format in all cases: biochemical
reconstituted nucleosome = biological target: T1, reconstituted nucleosome (Homo sapiens, UniProt P04908+P06899+P62805+P68431); assay: Yield determination by LC-MS/MS and exhaustive analysis of lysine residue selectivity; details: for lysine residue selectivity: acetylation of reconstituted nucleosome, FIGS. 5 and 6
T1 construct: made in house
Procedure: Cooled trichloroacetic acid (30 μL) was added, and the resultant was placed on ice for 30 minutes. After the centrifugation (4° C., 15000 rpm, 5 minutes), the supernatant was removed. After further centrifugation (4° C., 15000 rpm, 1 minute), the supernatant was again removed. Cooled acetone (450 μL) was added. After the centrifugation (4° C., 15000 rpm, 5 minutes), the supernatant was removed. After further centrifugation (4° C., 15000 rpm, 1 minute), the supernatant was again removed. The above procedure was repeated once more. […] A 1M sulfuric acid (25 μL) was added and placed on ice for 1 hour, followed by centrifugation (4° C., 15000 rpm, 5 minutes), and the supernatant was collected. Centrifugation (4° C., 15000 rpm, 1 minute) was performed again to collect the supernatant to combine with the earlier supernatant. The resultant was added with acetone (500 μL), followed by sufficient stirring, and was placed overnight at −30° C. After the centrifugation (4° C., 15000 rpm, 5 minutes), the supernatant was removed. After further centrifugation (4° C., 15000 rpm, 1 minute), the supernatant was again removed. After drying was performed with a centrifugal evaporator for 10 minutes, an aqueous solution of ammonium bicarbonate (0.1 M, 20 μL) was added. The resultant was added with a mixture of propionic anhydride and methanol (1:3, 20 μL) prepared immediately before, further added with ammonia water (15 μL), and was placed at room temperature for 30 minutes. Drying was performed with a centrifugal evaporator for 75 minutes, followed by treatment with a digestive enzyme.
In the case of trypsin: an aqueous solution of ammonium bicarbonate (0.1M, 50 μL) and trypsin (1 μg) were added, followed by reaction at 37° C. for 21 hours.
In the case of chymotrypsin: 100 mM Tris-HCl, 10 mM CaCl2 (50 μL, pH8.0), and chymotrypsin (8 μg) were added, followed by reaction at 25° C. for 21 hours.
A 5% aqueous solution of formic acid (25 μL) was added, followed by drying with a centrifugal evaporator for 75 minutes. The residue was dissolved in a 0.1% aqueous solution of formic acid (15 μL), and the resultant was used for LC-MS/MS.
Eksigent ekspert™ MicroLC 200
ESI-Q-TOF MS, positive-ion mode.
Precursor ions are designated, and for each of the precursor ions, 2 to 4 MS/MS fragment ions having the highest strength were selected. Ion extraction (±0.5 Da) was performed for the designated precursor ions and the MS/MS fragment ions, and the yield was calculated in accordance with the equation below.
For a chromatogram obtained by performing measurement in an Information Dependent Acquisition Mode, the yield was determined in accordance with the following equation from the peak area subjected to ion extraction (±0.5 Da) after designating the precursor ions. yield (%)=[A/A+P]×100 (here, A represents a peak area of an acetylated peptide and P represents a peak area of a propionylated peptide)

[1] = biological target: T2, histones (reconstituted nucleosome) (Homo sapiens, UniProt P04908+P06899+P62805+P68431); assay: Protein selective acetylation of reconstituted nucleosome mixed with cytoplasm fraction (western blotting, acetylated lysine antibody); details: reconstituted nucleosome + cytoplasm fraction 15%, Ligand-DSH 2 to 5 μM, acyl donor 1 mM, TCEP 100 μM, room temperature, 5 hours; FIG. 3A
T2 construct: made in house
Description: (§1) Proteins were separated on a 4-20% SDS-PAGE gel, and transferred to a PVDF membrane, followed by blocking with 5% skim milk suspended in TBST for the reaction between the PVDF membrane and primary antibodies. The primary antibodies used were as follows.
(§2) Acetylated-lysine antibody (#9441, Cell Signaling), anti-acetyl Histone H4 (Lys77) (ABE186, Millipore), anti-acetyl Histone H2B (Lys120) (ab176430, Abcam), malonylated-lysine antibody (PTM-901, PTM Biolabs), glutarylated-lysine antibody (PTM-1151, PTM Biolabs), butyrylated-lysine antibody (PTM-301, PTM Biolabs), 2-hydroisobutyrylated antibody (PTM-801, PTM Biolabs), streptavidin-HRP (#3999S, Cell Signaling).
(§3) After washing with TBST, a secondary antibody (Anti-Rabbit IgG, HRP-linked, NA934V, GE) was reacted. The PVDF membrane was treated with a chemilluminescent detection reagent Luminata Forte Western HRP Substrate (Millipore), and the detection was performed using ImageQuant LAS 4000 (GE healthcare life sciences).
(§4) A buffer solution (20 mM Tris-HCl, pH 7.5) containing a reconstituted nucleosome (33 μg/mL 601 DNA) and a cytoplasm fraction (15%) was added with Ligand-DSH (2 to 5 μM), acyl CoA (1 mM), and TCEP (100 μM), followed by reaction at room temperature for 5 hours. Thereafter, western blotting was performed.
First, protein selectivity was evaluated. A reconstituted nucleosome prepared in accordance with a known method (Tachiwana, H. et al., Proceedings of the National Academy of Sciences of the United States of America 2010, 107, 10454-10459) and cytoplasm fractions acquired from living cells were mixed. Then, evaluation was carried out on whether or not the newly developed catalyst could selectively acetylate histones by western blotting using an acetylation lysine antibody (FIG. 3A).

[2] = biological target: T3, reconstituted nucleosome (H2BK120, H4K77) (Homo sapiens, UniProt P04908+P06899+P62805+P68431); assay: Lysine residue selective acetylation of reconstituted nucleosome (western blotting, residue-selective acetylated lysine antibodies); details: with acetyl CoA, FIG. 3B
T3 construct: made in house
Description: as §1, §2
as §3, with “sciences). […]” for “sciences).”
Next, the selectivity of lysine residues in histones was evaluated. A similar reaction was evaluated by western blotting using a residue-selective acetylation lysine antibody.

[3] = biological target: T2, histones (reconstituted nucleosome); assay: Acylation other than acetylation with catalyst and various acyl CoA (western blotting); details: catalyst with the corresponding acyl CoA; FIG. 9
Description: as §1, §2, §3, §4
In light of the above, a study was carried out on whether or not acylation other than acetylation would be possible using the developed catalyst.

cytoplasm proteins = assay: Comparison of reactivity of acetyl group donors with cytoplasm proteins (western blotting, anti-acetylated lysine antibody); details: acetyl group donor 1 mM, cytoplasm fraction 20%, room temperature, 10 hours; FIG. 1B
Procedure: Approximately 10^6 cells were detached from a culture dish by a trypsin treatment. After washed with PBS, the cell pellets were suspended in a cooled, cell lysis buffer [50 mM Tris (pH 7.5), 300 mMNaCl, 0.3% Triton X-100, protease inhibitor cocktail, and 1 mM PMSF], and placed on ice for 30 minutes. After the centrifugation (4° C., 1500 rpm, 2 minutes), the supernatant was collected as a cytoplasm fraction.
as §1, §2
as §3, with “sciences). […]” for “sciences).”

[4] = Ligand-DSH 2 μM, acetyl CoA 1 mM, TCEP 100 μM, 5 hours

acetylation yield of H3K36 (reconstituted nucleosome; [4]): 14%
acetylation yield of H3K56 (reconstituted nucleosome; [4]): 9%
acetylation yield of H4K77 (reconstituted nucleosome; [4]): 14%
lysine residue selectivity (reconstituted nucleosome): high
acetylation of H4K77 (western blotting) ([2]; anti-acetyl Histone H4 (Lys77)): strongly acetylated
SMILES: CN(CCCNC(=O)CCN(C)c1ccnc(CS)c1)CCCNC(=O)c1cc(NC(=O)c2cc(NC(=O)c3cc(NC(=O)c4nc(NC(=O)CCCNC(=O)c5cc(NC(=O)c6cc(NC(=O)c7cc(NC(=O)c8nccn8C)cn7C)cn6C)cn5C)cn4C)cn3C)cn2C)cn1C [PIP-DSH]
histone-selective acetylation [1]: histone-selective acetylation was achieved

SMILES: CC(=O)NCCSC(C)=O
histone-selective acetylation [1]: histone-selective acetylation was observed in the same way

SMILES: CSCC[C@H](NC(=O)CNC(=O)CCN(C)c1ccnc(CS)c1)C(=O)NC(CCCNC(=N)N)C(=O)N[C@@H](CC(C)C)C(=O)NC(CCCNC(=N)N)C(=O)N[C@@H](CO)C(=O)NCC(=O)N[C@@H](CCCNC(=N)N)C(=O)NC(CO)C(=O)N[C@H](C(=O)NCC(N)=O)C(C)O (stereo partly shown) [LANA-DSH] (X1-GM[ξR]L[ξR]SGR[ξS][Thr(3ξ)]G-NH2)
acetylation yield of H2BK120 (reconstituted nucleosome; [4]): 54%
lysine residue selectivity (reconstituted nucleosome): extremely high
2-hydroxy-iso-butyrylation [3]: enabled
biotinylation [3]: enabled
butyrylation [3]: enabled
glutarylation [3]: enabled
malonylation [3]: enabled
histone-selective acetylation [1]: histone-selective acetylation was achieved
acetylation of H2BK120 (western blotting) ([2]; anti-acetyl Histone H2B (Lys120)): strongly acetylated

SMILES: CON(C(C)=O)C(C)=O [NMD, N-methoxydiacetamide]
non-selective acetylation of cytoplasm proteins (cytoplasm proteins): non-selectively acetylated a large quantity of protein

histone-selective acetylation [1]: acetylation did not proceed
SMILES: CC(=O)SCCNC(=O)CCNC(=O)[C@H](O)C(C)(C)COP(=O)(O)OP(=O)(O)OC[C@H]1O[C@@H](n2cnc3c(N)ncnc32)[C@H](O)[C@@H]1OP(=O)(O)O [acetyl CoA, reference compound]
non-selective acetylation of cytoplasm proteins (cytoplasm proteins): did not cause such non-selective acetylation

— patent US11021461B2, “Artificial catalyst system for selective acylation of chromosome protein” (THE UNIVERSITY OF TOKYO, priority 2015, dated 2021)
